Data published in US20250387324A1, “IN SITU FORMING IMPLANTS AND MICROPARTICLES FOR INTRAARTICULAR DRUG DELIVERY” (Mississippi State University, priority 2024, published 2025).

Experiments:
[1] = tested on: IL-1β production by human THP-1 macrophages; test: LPS-stimulated IL-1β production by THP-1 macrophages (ELISA); format: cell-based
Text: (§1) In addition to the inhibition of released collagenases, PCG is capable of suppressing the biosynthesis of inflammatory mediators that play important roles in the pathogenesis of OA. Such chondroprotective properties were investigated using THP-1 monocytes that had been differentiated into macrophages. THP-1 is a human leukemia monocytic cell line. THP-1 monocytes were expanded by suspension culture in RPMI 1640 medium supplemented with 10% FBS and 1% antibiotic-antimycotic solution. They were differentiated into macrophages by adding PMA to a final concentration of 20 nM and transferring them to monolayer culture for 72 h.^13 Inflammation was then induced by treatment with 1 μg/ml LPS. PCG was first dissolved at 5 mM in complete culture medium. One hour after LPS stimulation, cells were treated with PCG at final concentrations of 4, 20, 100, and 500 μM. Culture supernatant was collected 24 h later and IL-1β quantified using ELISA, with results expressed as a percentage of the unstimulated control.

[2] = tested on: prostaglandin E2 (PGE2) production by human THP-1 macrophages; test: LPS-stimulated PGE2 production by THP-1 macrophages (LC-MS/MS); format: cell-based
Text: as §1
In addition to IL-1β, prostaglandin E2 (PGE2) in the culture supernatants was quantified using mass spectrometry. […] The residues were then reconstituted in 100 μL of methanol and analyzed by liquid chromatography with tandem mass spectrometry (LC-MS/MS), as previously described.^13

type 2 collagenase = test: Inhibition of collagenase-mediated cartilage degradation (pig cartilage disks, residual mass); format: biochemical
Protocol: The stability of PCG within a PLGA implant was examined by determining the ability of released PCG to inhibit collagenase-mediated cartilage degradation. Pig stifle (knee) joints were obtained from a local meat processor and full-thickness, cylindrical disks of articular cartilage (5 mm diameter) were harvested from the distal femurs. The disks were freeze-dried, weighed, and placed in Dulbecco's Modified Eagle Medium (DMEM) containing 0.0025% type 2 collagenase with and without 100 μM PCG (n=12 disks per group). Samples were incubated at 37° C. under gentle orbital shaking. At 3, 6, 9, and 12 days of incubation, three disks from each group were rinsed in distilled water, freeze-dried and weighed again, while the rest were allowed to continue incubation after adding fresh collagenase. The same experiment was repeated using implants made with 20% PLGA (50:50), NMP/BB 90/10, and 0 or 32 mg PCG per gram total implant weight (n=12 per group). Implants were formed in microcentrifuge tubes by pipetting 100 μl of the solution into distilled water. One hour later the water was replaced by the collagenase solution. Custom 3D-printed baskets were used to suspend the cartilage disks in the collagenase just above the implants. Disks were collected and weighed at the same 3-day intervals, with replacement of the collagenase solution each time. PCG concentration in the spent collagenase solution was determined by measuring absorbance at 373 nm and comparing to a standard curve generated from serial dilutions of PCG dissolved directly into DMEM. For both experiments, data are reported as residual mass of cartilage (final weight/initial weight). The overall effect of PCG was analyzed by two-way ANOVA with treatment and time as factors. Statistically significant effects of PCG at each time point were determined by independent t-test (equal variances not assumed).

[3] = Solvent screening for dissolving PCG; format: physicochemical
Protocol: The present inventor has developed a suitable in situ forming implant for sustained delivery of PCG. Polycarbonate, poly(lactic acid), and poly(lactide-co-glycolide) (PLGA) were dissolved in various solvents and screened for combinations that could also dissolve punicalagin and release it gradually from an implant formed in situ. PLGA emerged as the polymer that offered the best opportunity for the tuning of PCG release kinetics. Systems composed of PLGA and PCG dissolved in N-methyl-2-pyrrolidone (NMP) and/or benzyl alcohol (BA) consistently formed solid or hydrogel implants. […] Thus, one aspect of this invention is the characterization of PLGA in situ forming implants (originating from solutions containing NMP, BA, and BB) with respect to PCG stability and release kinetics.

[4] = tested on: adjuvant-induced arthritis; settings: daily intraperitoneal doses, 50 mg/kg; cited from earlier work
[5] = tested on: monoiodoacetate-induced model of OA; settings: cited from earlier work
[6] = 6% w/w PCG-containing diet for 37 days; cited from earlier work
fibroblast synoviocytes = settings: cited from earlier work
[7] = tested on: murine monocyte/macrophage-like cells; settings: dose-dependent; cited from earlier work
[8] = tested on: RAW264.7 murine macrophages; settings: cited from earlier work
collagen type II = collagen type II (Homo sapiens, UniProt P02458); settings: non-covalent; cited from earlier work
collagenase = settings: in vitro; cited from earlier work

Sequence of collagen type II (P02458 182-1241 limits assumed): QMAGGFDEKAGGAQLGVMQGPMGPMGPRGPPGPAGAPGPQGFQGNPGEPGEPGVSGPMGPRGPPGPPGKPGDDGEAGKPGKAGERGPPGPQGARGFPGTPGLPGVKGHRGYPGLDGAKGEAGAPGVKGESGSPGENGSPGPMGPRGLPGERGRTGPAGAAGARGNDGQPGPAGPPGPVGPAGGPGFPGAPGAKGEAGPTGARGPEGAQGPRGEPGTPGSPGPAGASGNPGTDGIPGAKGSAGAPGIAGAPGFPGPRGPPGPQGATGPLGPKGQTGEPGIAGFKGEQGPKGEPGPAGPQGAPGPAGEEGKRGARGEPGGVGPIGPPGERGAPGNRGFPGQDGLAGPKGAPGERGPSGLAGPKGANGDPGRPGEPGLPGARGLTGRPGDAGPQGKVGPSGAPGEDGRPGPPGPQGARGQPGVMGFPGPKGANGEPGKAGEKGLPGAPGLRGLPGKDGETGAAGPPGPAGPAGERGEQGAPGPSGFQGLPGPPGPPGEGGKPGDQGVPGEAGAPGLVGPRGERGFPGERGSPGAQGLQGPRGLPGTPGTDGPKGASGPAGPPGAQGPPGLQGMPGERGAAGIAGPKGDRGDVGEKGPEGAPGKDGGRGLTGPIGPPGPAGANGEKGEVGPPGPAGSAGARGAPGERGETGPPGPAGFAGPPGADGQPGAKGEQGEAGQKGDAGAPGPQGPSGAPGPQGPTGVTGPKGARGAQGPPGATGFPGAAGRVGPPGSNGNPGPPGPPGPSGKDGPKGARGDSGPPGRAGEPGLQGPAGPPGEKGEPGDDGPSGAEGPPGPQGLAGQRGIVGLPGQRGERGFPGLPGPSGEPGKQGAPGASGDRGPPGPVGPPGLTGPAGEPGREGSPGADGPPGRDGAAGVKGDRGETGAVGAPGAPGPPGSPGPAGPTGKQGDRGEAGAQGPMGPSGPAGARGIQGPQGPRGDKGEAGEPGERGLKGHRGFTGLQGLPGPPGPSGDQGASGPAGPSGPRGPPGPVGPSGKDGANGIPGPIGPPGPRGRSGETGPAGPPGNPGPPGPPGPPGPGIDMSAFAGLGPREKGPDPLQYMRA

Question: What does the source list for `O=C1O[C@H]2[C@@H]3OC(=O)c4cc(O)c(O)c(O)c4-c4c(O)c(O)c5oc(=O)c6c(c(O)c(O)c7oc(=O)c4c5c76)-c4c(cc(O)c(O)c4O)C(=O)OC[C@H]3OC(O)[C@@H]2OC(=O)c2cc(O)c(O)c(O)c2-c2c1cc(O)c(O)c2O` (mixture of isomers) [PCG, punicalagin]?
Answer: LPS-stimulated IL-1β production ([1]; PCG 4 μM, added 1 h after 1 μg/ml LPS, supernatant at 24 h): return to the unstimulated control level; LPS-stimulated IL-1β production ([1]; PCG 20 μM and above): suppression of practically all IL-1β synthesis; attenuation of LPS-stimulated production of PGE2 ([2]; PCG 500 μM): approximately 85%; decrease in PGE2 production ([2]; PCG in the range of 4-100 μM): about 35%; cartilage mass loss (type 2 collagenase; 100 μM PCG added directly, 12 days, 0.0025% type 2 collagenase): about 55%; collagenase-mediated degradation of cartilage (type 2 collagenase; added directly to collagenase solution or released from an ISI): significantly inhibited; stability of PCG within PLGA ISI (type 2 collagenase; judged by collagenase inhibition of released PCG): at least 12 days; solubility of PCG in benzyl benzoate (BB) [3]: did not dissolve; paw edema [4]: significantly reduced paw edema; systemic toxicity (histology of major organs) ([5]; intraarticular PCG study): no evidence of systemic toxicity; erosion of cartilage compared to saline control ([5]; semi-weekly intraarticular injections, 9.2 mM PCG solution): less overall erosion of cartilage; systemic toxicity [6]: no systemic toxicity; TNF-α induced expression of IL-1β (fibroblast synoviocytes): reduce; TNF-α induced expression of IL-6 (fibroblast synoviocytes): reduce; TNF-α induced expression of MMP-13 (fibroblast synoviocytes): reduce; lipopolysaccharide-stimulated production of IL-6 [7]: suppressed; lipopolysaccharide-stimulated production of nitric oxide (NO) [7]: suppressed; lipopolysaccharide-stimulated production of prostaglandin E2 (PGE2) [7]: suppressed; LPS-induced production of IL-1β [8]: attenuated; LPS-induced production of PGE2 [8]: attenuated; binding to collagen type II (collagen type II): high affinity; collagenase enzymatic activity (collagenase): inhibit its enzymatic activity
